Molecules are shown by their SMILES. Starred links: 1 amine or outer side, 2 acyl side, 3 side chain; linkers in the order of their positions; H or OH if unused. Non-standard residues stand in square brackets, D forms with d. Residues, ends and D or L forms follow the SMILES beside them. Groups on a side chain read outwards from the residue. *: point of attachment. X5 = CCCCCCCCCCCCCCCC(=O)N[C@@H](CCC(=O)N[C@@H](CCC(=O)N[C@@H](CCC(=O)NCCCOCCOCCOCCCNC(=O)CCC(=O)NCCCOCCOCCOCCCNC(=O)CCC(=O)NCCCOCCOCCOCCCNC(=O)CCC(=O)NCCCOCCOCCOCCCN*)C(=O)O)C(=O)O)C(=O)O; X1 = CCCCCCCCCCCCCCCC(=O)N[C@@H](CCC(=O)N[C@@H](CCC(=O)N[C@@H](CCC(=O)NCCCOCCOCCOCCCNC(=O)CCC(=O)NCCCOCCOCCOCCCNC(=O)CCC(=O)NCCCOCCOCCOCCCN*)C(=O)O)C(=O)O)C(=O)O; Suc = O=C(CCC(=O)[*:2])[*:1]; Aib = CC(C)(N)C(=O)O

The target of the assay is T1, RXFP1 (Homo sapiens, UniProt Q9HBX9).
T1 construct: OVCAR5 cells expressing endogenous RXFP1; endogenous in cells; host or cells: OVCAR5
T1 sequence (Q9HBX9 1-757): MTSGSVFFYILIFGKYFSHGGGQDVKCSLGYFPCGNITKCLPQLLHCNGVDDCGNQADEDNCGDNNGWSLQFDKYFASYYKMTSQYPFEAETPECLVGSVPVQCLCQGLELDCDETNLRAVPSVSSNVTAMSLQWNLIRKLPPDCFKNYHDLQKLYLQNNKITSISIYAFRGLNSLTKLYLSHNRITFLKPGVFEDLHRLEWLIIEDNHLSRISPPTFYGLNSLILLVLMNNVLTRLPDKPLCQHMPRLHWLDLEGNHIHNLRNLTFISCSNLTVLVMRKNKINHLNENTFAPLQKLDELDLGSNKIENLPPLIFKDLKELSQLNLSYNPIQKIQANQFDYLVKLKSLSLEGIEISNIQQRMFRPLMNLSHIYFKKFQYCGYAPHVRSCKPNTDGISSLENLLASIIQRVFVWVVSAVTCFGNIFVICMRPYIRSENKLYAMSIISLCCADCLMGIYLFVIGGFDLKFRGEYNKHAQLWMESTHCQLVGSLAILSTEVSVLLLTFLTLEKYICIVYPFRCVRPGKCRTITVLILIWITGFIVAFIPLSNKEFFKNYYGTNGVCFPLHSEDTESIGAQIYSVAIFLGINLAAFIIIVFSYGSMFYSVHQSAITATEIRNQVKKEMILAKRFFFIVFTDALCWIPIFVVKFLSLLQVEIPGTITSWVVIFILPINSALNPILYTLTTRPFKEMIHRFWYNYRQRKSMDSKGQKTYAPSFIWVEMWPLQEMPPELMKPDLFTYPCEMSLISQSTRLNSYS
In words: OVCAR5 cAMP assay (HTRF). The format is cell-based. Conditions: for Emax: OVCAR 5 cells, maximal cAMP relative to H2-relaxin; for EC50: OVCAR 5 cells expressing endogenous RXFP1, cAMP readout. The method in brief:
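Peptide agonism measured as intracellular cAMP (HTRF) after 30 min at 37° C in serum-free medium, following 40 min 1 mM IBMX preincubation of OVCAR5 cells. Nonlinear regression gave EC50; Emax % = 100 × compound maximal cAMP / H2-relaxin maximal cAMP.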
For orientation: cAMP levels reflect the balance of adenylyl cyclase and phosphodiesterase activity.

`CCCCCCCCCCCCCCCC(=O)N[C@@H](CCC(=O)N[C@@H](CCC(=O)N[C@@H](CCC(=O)NCCCOCCOCCOCCCNC(=O)CCC(=O)NCCCOCCOCCOCCCNC(=O)CCC(=O)NCCCOCCOCCOCCCNC(=O)CCC(=O)NCCCC[C@H](NC(=O)CNC(=O)[C@H](CCC(=O)O)NC(=O)C(C)(C)NC(=O)C(C)(C)NC(=O)[C@@H](NC(=O)[C@H](CCCCNC(C)=O)NC(=O)[C@H](C)NC(=O)[C@H](CCCNC(=N)N)NC(=O)[C@@H](NC(=O)[C@H](CCCCN)NC(=O)[C@H](CCC(=O)O)NC(=O)[C@H](CCCNC(=N)N)NC(=O)CNC(=O)[C@H](CCC(=O)O)NC(=O)[C@H](CC(C)C)NC(C)=O)C(C)C)[C@@H](C)CC)C(=O)N[C@@H](CO)C(=O)N[C@H](C(=O)N[C@@H](Cc1c[nH]c2ccccc12)C(=O)N[C@@H](CCCCNC(C)=O)C(=O)NC(C)(C)C(=O)N[C@@H](CCCNC(=N)N)C(=O)N[C@@H](C)C(=O)N[C@@H](CCCCNC(C)=O)C(N)=O)[C@@H](C)O)C(=O)O)C(=O)O)C(=O)O` [compound 66] (Ac-LEGREKVRAK(Ac)I[Aib][Aib]EGK([Suc-X1])STWK(Ac)[Aib]RAK(Ac)-NH2) gave an Emax of 93%. Turning to `CCCCCCCCCCCCCCCC(=O)N[C@@H](CCC(=O)N[C@@H](CCC(=O)N[C@@H](CCC(=O)NCCCOCCOCCOCCCNC(=O)CCC(=O)NCCCOCCOCCOCCCNC(=O)CCC(=O)NCCCOCCOCCOCCCNC(=O)CCC(=O)NCCCC[C@H](NC(=O)CNC(=O)[C@H](CCC(=O)O)NC(=O)C(C)(C)NC(=O)C(C)(C)NC(=O)[C@@H](NC(=O)[C@H](CCCCNC(C)=O)NC(=O)[C@H](C)NC(=O)[C@H](CCCNC(=N)N)NC(=O)[C@@H](NC(=O)[C@H](CCCNC(=N)N)NC(=O)[C@H](CCC(=O)O)NC(=O)[C@H](CCCNC(=N)N)NC(=O)CNC(=O)[C@H](CCC(=O)O)NC(=O)[C@H](CC(C)C)NC(C)=O)C(C)C)[C@@H](C)CC)C(=O)N[C@@H](CO)C(=O)N[C@H](C(=O)N[C@@H](Cc1c[nH]c2ccccc12)C(=O)N[C@@H](CO)C(=O)NC(C)(C)C(=O)N[C@@H](CCCNC(=N)N)C(=O)N[C@@H](CCCCN)C(=O)N[C@@H](CCCCNC(C)=O)C(N)=O)[C@@H](C)O)C(=O)O)C(=O)O)C(=O)O` [compound 67] (Ac-LEGRERVRAK(Ac)I[Aib][Aib]EGK([Suc-X1])STWS[Aib]RKK(Ac)-NH2), the EC50 is 0.48 nM and the Emax was found to be 95%. In turn, `CCCCCCCCCCCCCCCC(=O)N[C@@H](CCC(=O)N[C@@H](CCC(=O)N[C@@H](CCC(=O)NCCCOCCOCCOCCCNC(=O)CCC(=O)NCCCOCCOCCOCCCNC(=O)CCC(=O)NCCCOCCOCCOCCCNC(=O)CCC(=O)NCCCC[C@H](NC(=O)CNC(=O)[C@H](CCC(=O)O)NC(=O)C(C)(C)NC(=O)C(C)(C)NC(=O)[C@@H](NC(=O)[C@H](CCCCNC(C)=O)NC(=O)[C@H](C)NC(=O)[C@H](CCCNC(=N)N)NC(=O)[C@@H](NC(=O)[C@H](CCCCN)NC(=O)[C@H](CCC(=O)O)NC(=O)[C@H](CCCNC(=N)N)NC(=O)CNC(=O)[C@H](CCC(=O)O)NC(=O)[C@H](CC(C)C)NC(C)=O)C(C)C)[C@@H](C)CC)C(=O)N[C@@H](CO)C(=O)N[C@H](C(=O)N[C@@H](Cc1c[nH]c2ccccc12)C(=O)N[C@@H](CO)C(=O)NC(C)(C)C(=O)N[C@@H](CCCNC(=N)N)C(=O)N[C@@H](CCCCNC(C)=O)C(=O)N[C@@H](CCCCN)C(N)=O)[C@@H](C)O)C(=O)O)C(=O)O)C(=O)O` [compound 68] (Ac-LEGREKVRAK(Ac)I[Aib][Aib]EGK([Suc-X1])STWS[Aib]RK(Ac)K-NH2) displayed a concentration giving a half-maximal response (EC50) of 0.88 nM and an Emax of 98%. Turning to `CCCCCCCCCCCCCCCC(=O)N[C@@H](CCC(=O)N[C@@H](CCC(=O)N[C@@H](CCC(=O)NCCCOCCOCCOCCCNC(=O)CCC(=O)NCCCOCCOCCOCCCNC(=O)CCC(=O)NCCCOCCOCCOCCCNC(=O)CCC(=O)NCCCC[C@H](NC(=O)CNC(=O)[C@H](CCC(=O)O)NC(=O)C(C)(C)NC(=O)C(C)(C)NC(=O)[C@@H](NC(=O)[C@H](CCCCNC(C)=O)NC(=O)[C@H](C)NC(=O)[C@H](CCCNC(=N)N)NC(=O)[C@@H](NC(=O)[C@H](CCCCN)NC(=O)[C@H](CCC(=O)O)NC(=O)[C@H](CCCNC(=N)N)NC(=O)CNC(=O)[C@H](CCC(=O)O)NC(=O)[C@H](CC(C)C)NC(C)=O)C(C)C)[C@@H](C)CC)C(=O)N[C@@H](CO)C(=O)N[C@H](C(=O)N[C@@H](Cc1c[nH]c2ccccc12)C(=O)N[C@@H](CO)C(=O)NC(C)(C)C(=O)N[C@@H](CCCNC(=N)N)C(=O)N[C@@H](CCCCNC(C)=O)C(=O)N[C@@H](CCCNC(=N)N)C(N)=O)[C@@H](C)O)C(=O)O)C(=O)O)C(=O)O` [compound 69] (Ac-LEGREKVRAK(Ac)I[Aib][Aib]EGK([Suc-X1])STWS[Aib]RK(Ac)R-NH2), the concentration for a half-maximal effect (EC50) came to 0.78 nM and the Emax was 97%. `CCCCCCCCCCCCCCCC(=O)N[C@@H](CCC(=O)N[C@@H](CCC(=O)N[C@@H](CCC(=O)NCCCOCCOCCOCCCNC(=O)CCC(=O)NCCCOCCOCCOCCCNC(=O)CCC(=O)NCCCOCCOCCOCCCNC(=O)CCC(=O)NCCCC[C@H](NC(=O)CNC(=O)[C@H](CCC(=O)O)NC(=O)C(C)(C)NC(=O)C(C)(C)NC(=O)[C@@H](NC(=O)[C@H](CCCCNC(C)=O)NC(=O)[C@H](C)NC(=O)[C@H](CCCNC(=N)N)NC(=O)[C@@H](NC(=O)[C@H](CCCCN)NC(=O)[C@H](CCC(=O)O)NC(=O)[C@H](CCCNC(=N)N)NC(=O)CNC(=O)[C@H](CCC(=O)O)NC(=O)[C@H](CC(C)C)NC(C)=O)C(C)C)[C@@H](C)CC)C(=O)N[C@@H](CO)C(=O)N[C@@H](CCCCN)C(=O)N[C@@H](Cc1c[nH]c2ccccc12)C(=O)N[C@@H](CO)C(=O)NC(C)(C)C(=O)N[C@@H](CCCNC(=N)N)C(=O)N[C@@H](C)C(=O)N[C@@H](CCCCN)C(N)=O)C(=O)O)C(=O)O)C(=O)O` [compound 73] (Ac-LEGREKVRAK(Ac)I[Aib][Aib]EGK([Suc-X1])SKWS[Aib]RAK-NH2) registered an EC50 of 0.2 nM and an Emax of 95%. The like results for `CCCCCCCCCCCCCCCC(=O)N[C@@H](CCC(=O)N[C@@H](CCC(=O)N[C@@H](CCC(=O)NCCCOCCOCCOCCCNC(=O)CCC(=O)NCCCOCCOCCOCCCNC(=O)CCC(=O)NCCCOCCOCCOCCCNC(=O)CCC(=O)NCCCC[C@H](NC(=O)CNC(=O)[C@H](CCC(=O)O)NC(=O)C(C)(C)NC(=O)C(C)(C)NC(=O)[C@@H](NC(=O)[C@H](CCCCNC(C)=O)NC(=O)[C@H](C)NC(=O)[C@H](CCCNC(=N)N)NC(=O)[C@@H](NC(=O)[C@H](CCCNC(=N)N)NC(=O)[C@H](CCC(=O)O)NC(=O)[C@H](CCCNC(=N)N)NC(=O)CNC(=O)[C@H](CCC(=O)O)NC(=O)[C@H](CC(C)C)NC(C)=O)C(C)C)[C@@H](C)CC)C(=O)N[C@@H](CO)C(=O)N[C@H](C(=O)N[C@@H](Cc1ccccc1)C(=O)N[C@@H](CO)C(=O)NC(C)(C)C(=O)N[C@@H](CCCNC(=N)N)C(=O)N[C@@H](CCCNC(=N)N)C(=O)N[C@@H](CCCCNC(C)=O)C(N)=O)[C@@H](C)O)C(=O)O)C(=O)O)C(=O)O` [compound 76] (Ac-LEGRERVRAK(Ac)I[Aib][Aib]EGK([Suc-X1])STFS[Aib]RRK(Ac)-NH2) were, in that order, 0.18 nM and 96%. The corresponding values for `CCCCCCCCCCCCCCCC(=O)N[C@@H](CCC(=O)N[C@@H](CCC(=O)N[C@@H](CCC(=O)NCCCOCCOCCOCCCNC(=O)CCC(=O)NCCCOCCOCCOCCCNC(=O)CCC(=O)NCCCOCCOCCOCCCNC(=O)CCC(=O)NCCCOCCOCCOCCCNC(=O)CCC(=O)NCCCC[C@H](NC(=O)CNC(=O)[C@H](CCC(=O)O)NC(=O)C(C)(C)NC(=O)C(C)(C)NC(=O)[C@@H](NC(=O)[C@H](CCCCNC(C)=O)NC(=O)[C@H](C)NC(=O)[C@H](CCCNC(=N)N)NC(=O)[C@@H](NC(=O)[C@H](CCCNC(=N)N)NC(=O)[C@H](CCC(=O)O)NC(=O)[C@H](CCCNC(=N)N)NC(=O)CNC(=O)[C@H](CCC(=O)O)NC(=O)[C@H](CC(C)C)NC(C)=O)C(C)C)[C@@H](C)CC)C(=O)N[C@@H](CO)C(=O)N[C@H](C(=O)N[C@@H](Cc1ccccc1)C(=O)N[C@@H](CO)C(=O)NC(C)(C)C(=O)N[C@@H](CCCNC(=N)N)C(=O)N[C@@H](CCCNC(=N)N)C(=O)N[C@@H](CCCCNC(C)=O)C(N)=O)[C@@H](C)O)C(=O)O)C(=O)O)C(=O)O` [compound 77] (Ac-LEGRERVRAK(Ac)I[Aib][Aib]EGK([Suc-X5])STFS[Aib]RRK(Ac)-NH2) are 0.11 nM and 98%.

As a reminder, the Emax is the maximal effect, on the per cent scale that the assay sets. Usually EC50 stands for the concentration at which the effect is half-maximal. Read a high EC50 as weaker potency.

These data come from patent US11725036B2, “Modified lipidated relaxin B chain peptides and their therapeutic use” (Sanofi, priority 2018, dated 2023).
